Source: ChEMBL document CHEMBL2202954, “The effect of PLC-γ2 inhibitors on the growth of human tumour cells” (2012)

Tests used:
Format in all cases: functional
RPMI-8226 = assay: Cytotoxicity against human RPMI8226 cells by SRB assay
MOLT-4 = assay: Cytotoxicity against human MOLT4 cells by SRB assay
HL-60(TB) = assay: Cytotoxicity against human HL-60(TB) cells by SRB assay
SF-295 = assay: Cytotoxicity against human SF295 cells by SRB assay
NCI-H522 = assay: Cytotoxicity against human NCI-H522 cells by SRB assay
MDA-MB-468 = assay: Cytotoxicity against human MDA-MB-468 cells by SRB assay
SR = assay: Cytotoxicity against human SR cells by SRB assay
CCRF-CEM = assay: Cytotoxicity against human CCRF-CEM cells by SRB assay
K562 = assay: Cytotoxicity against human K562 cells by SRB assay

SMILES | GI50 (RPMI-8226) | TGI (RPMI-8226) | GI50 (MOLT-4) | TGI (MOLT-4) | GI50 (HL-60(TB)) | TGI (HL-60(TB)) | GI50 (SF-295) | GI50 (NCI-H522) | LC50 (NCI-H522) | TGI (NCI-H522) | GI50 (MDA-MB-468) | TGI (MDA-MB-468) | GI50 (SR) | TGI (SR) | GI50 (CCRF-CEM) | TGI (CCRF-CEM) | GI50 (K562) | TGI (K562) | TGI (SF-295)
Nc1c(C(=O)Nc2ccccc2)sc2nc3c(cc12)C(=O)CCC3 | 0.52 µM | > 100 µM | 0.52 µM | > 100 µM | 0.52 µM | > 100 µM | 0.372 µM | 0.15 µM | 68 µM | 0.402 µM | 0.15 µM | 0.583 µM | 0.52 µM | > 100 µM | 0.52 µM | > 100 µM | 0.52 µM | > 100 µM | 
Cc1cc(C)c(NC(=O)c2sc3nc4c(cc3c2N)C(=O)CCC4)c(C)c1 | 3.6 µM | > 100 µM | 3.6 µM | > 100 µM | 3.6 µM | > 100 µM | 0.399 µM | 0.36 µM |  | 2.01 µM | 0.596 µM | 3.65 µM | 3.6 µM | > 100 µM | 3.6 µM | > 100 µM | 3.6 µM | > 100 µM | 
Cc1ccccc1NC(=O)c1sc2nc3c(cc2c1N)C(=O)CCC3 | 4.3 µM | > 100 µM | 4.3 µM | > 100 µM | 4.3 µM | > 100 µM | 1.33 µM | 0.895 µM |  | 3.5 µM | 0.529 µM | 6.21 µM | 4.3 µM | > 100 µM | 4.3 µM | > 100 µM | 4.3 µM | > 100 µM | 
Cc1ccc(Cl)cc1NC(=O)c1sc2nc3c(cc2c1N)C(=O)CCC3 | 3.5 µM | > 100 µM | 3.5 µM | > 100 µM | 3.5 µM | > 100 µM | 2.33 µM | 2.17 µM |  | 4.95 µM | 2.74 µM | 8.76 µM | 3.5 µM | > 100 µM | 3.5 µM | > 100 µM | 3.5 µM | > 100 µM | 7.44 µM
Nc1c(C(=O)Nc2cccc(Cl)c2)sc2nc3c(cc12)C(=O)CCC3 | 0.2 µM | > 100 µM | 0.2 µM | > 100 µM | 0.2 µM | > 100 µM | 0.213 µM | 0.19 µM |  | 0.788 µM | 0.045 µM | 0.622 µM | 0.2 µM | > 100 µM | 0.2 µM | > 100 µM | 0.2 µM | > 100 µM | 0.781 µM
Nc1c(C(=O)Nc2ccccc2F)sc2nc3c(cc12)C(=O)CCC3 | 1.8 µM | > 100 µM | 1.8 µM | > 100 µM | 1.8 µM | > 100 µM | 0.57 µM | 0.44 µM |  | 3.31 µM | 0.238 µM | 0.952 µM | 1.8 µM | > 100 µM | 1.8 µM | > 100 µM | 1.8 µM | > 100 µM | 85.7 µM
